Measurements taken from PMC13340911 (Archives of biochemistry and biophysics, 2025).
Changes are numbered by the printed parent chain. pKd: −log10 of the molar value.

Assays:
Nocturnin (NOCT) [1] = target: T1, Nocturnin (NOCT) (Homo sapiens, UniProt Q9UK39, H286N); assay: NADPH intrinsic fluorescence titration; format: binding
T1 sequence (Q9UK39 122-431 H286N): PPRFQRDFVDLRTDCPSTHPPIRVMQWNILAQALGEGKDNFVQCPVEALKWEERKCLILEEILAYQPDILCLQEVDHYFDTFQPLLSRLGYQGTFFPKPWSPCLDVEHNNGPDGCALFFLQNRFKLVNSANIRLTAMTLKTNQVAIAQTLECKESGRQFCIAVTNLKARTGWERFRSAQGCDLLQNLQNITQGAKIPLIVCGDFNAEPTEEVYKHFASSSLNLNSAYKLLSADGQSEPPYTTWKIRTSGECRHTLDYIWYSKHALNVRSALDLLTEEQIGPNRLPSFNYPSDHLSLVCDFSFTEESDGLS

Nocturnin (NOCT) [2] = target: T2, Nocturnin (NOCT) (Homo sapiens, UniProt Q9UK39, N149A); assay: NADPH intrinsic fluorescence titration; format: binding
T2 sequence (Q9UK39 122-431 N149A): T1 sequence (Q9UK39 122-431 H286N) with N28A, N165H

Nocturnin (NOCT) [3] = target: T3, Nocturnin (NOCT) (Homo sapiens, UniProt Q9UK39, H414N); assay: NADPH intrinsic fluorescence titration; format: binding
T3 sequence (Q9UK39 122-431 H414N): T1 sequence (Q9UK39 122-431 H286N) with N165H, H293N

Nocturnin (NOCT) [4] = target: T4, Nocturnin (NOCT) (Homo sapiens, UniProt Q9UK39); assay: NADPH intrinsic fluorescence titration; format: binding
T4 sequence (Q9UK39 122-431): T1 sequence (Q9UK39 122-431 H286N) with N165H

Nocturnin (NOCT) [5] = target: T4, Nocturnin (NOCT); assay: steady-state phosphatase kinetics of purified NOCT; format: biochemical

| Compound | pKd (Nocturnin (NOCT) [1]) | pKd (Nocturnin (NOCT) [2]) | pKd (Nocturnin (NOCT) [3]) | pKd (Nocturnin (NOCT) [4]) | steady-state phosphatase kinetics of purified NOCT (malachite green); value is k (Nocturnin (NOCT) [5]) |
| --- | --- | --- | --- | --- | --- |
| NC(=O)C1=CN([C@@H]2O[C@H](COP(=O)(O)OP(=O)(O)OC[C@H]3O[C@@H](n4cnc5c(N)ncnc54)[C@H](OP(=O)(O)O)[C@@H]3O)[C@@H](O)[C@H]2O)C=CC1 [NADPH] | 3.66 | 3.33 | 3.47 | 3.51 | – |
| NC(=O)c1ccc[n+]([C@@H]2O[C@H](COP(=O)(O)OP(=O)(O)OC[C@H]3O[C@@H](n4cnc5c(N)ncnc54)[C@H](OP(=O)(O)O)[C@@H]3O)[C@@H](O)[C@H]2O)c1 [NADP^+] | – | – | – | – | 78 |
